Results published in patent US20250144067A1, “PERSONALIZED STARVATION THERAPY FOR CANCER” (Faeth Therapeutics, Inc., priority 2021, published 2025).
Where a name gives a salt, the structure may show the parent alone. Read-outs that look alike come from different tables or passages of the source. Ends that are not written are not given here.

Columns and labels:
[1] = system: NCI-H292 lung cancer cells; test: FDA drug screening, complete media vs cholesterol-free media without statin (TABLE 1); assay type: cell-based, human
[2] = system: NCI-H292 lung cancer cells; test: FDA drug screening, complete media vs cholesterol-free media with simvastatin (TABLE 2); assay type: cell-based, human
[3] = NCI-H292 cells, cholesterol-free media without statin
[4] = complete vs cholesterol-free media, greater than 0 enhanced anti-cancer activity, about 0 neutral, below 0 antagonists
[5] = NCI-H292 cells, cholesterol-free media with simvastatin 0.04 μM, cell growth value in FDA drug screen
[6] = NCI-H292 cells, complete media, cell growth value in FDA drug screen
[7] = complete media minus cholesterol-free media + simvastatin, >0 enhanced anti-cancer activity, about 0 neutral, <0 antagonist
[8] = Complete minus Cholesterol-free, greater than 0 enhanced anti-cancer activity, about 0 neutral, below 0 antagonist
[9] = NCI-H292 cells, FDA drug library screen, cholesterol-free media without statin
[10] = NCI-H292 cells, FDA drug library screen, complete media
[11] = NCI-H292 cells, cholesterol-free media without statin, FDA drug library screen
[12] = NCI-H292 cells, complete media, FDA drug library screen
[13] = complete vs cholesterol-free media, >0 enhanced anti-cancer activity, about 0 neutral, <0 antagonist
[14] = NCI-H292 cells, drug in cholesterol-free media with simvastatin 0.04 μM
[15] = NCI-H292 cells, drug in complete media
[16] = complete media vs cholesterol-free media + simvastatin (0.04 μM), >0 enhanced anti-cancer activity, about 0 neutral, <0 antagonist
[17] = NCI-H292 cells, cholesterol-free media with simvastatin 0.04 μM, FDA drug library screen (TABLE 2)
[18] = NCI-H292 cells, complete media, FDA drug library screen (TABLE 2)
[19] = complete media minus cholesterol-free media + simvastatin (0.04 μM), >0 enhanced anti-cancer activity, about 0 neutral, <0 antagonist
[20] = NCI-H292 cells, FDA drug library screen, cholesterol-free media with simvastatin 0.04 μM
[21] = Complete minus Cholesterol-free, […]
[22] = NCI-H292 cells in cholesterol-free media without statin
[23] = complete media minus cholesterol-free media + simvastatin (0.04 μM), […]
[24] = Complete minus Cholesterol-free, greater than 0 enhanced anti-cancer activity, about 0 neutral, below 0 antagonists
[25] = NCI-H292 cells in complete media
[26] = complete vs cholesterol-free media, […]
[27] = NCI-H292 cells, FDA library drug in cholesterol-free media with simvastatin 0.04 μM
[28] = NCI-H292 cells, FDA library drug in complete media
[29] = complete media vs cholesterol-free media + simvastatin (0.04 μM), […]
[30] = Complete minus Cholesterol-free, >0 enhanced anti-cancer activity, about 0 neutral, <0 antagonist

CN(C)CC(c1ccc(O)cc1)C1(O)CCCCC1 (stereo not shown) [Desvenlafaxine]
Cholesterol-free [1, 3]: 1.158 | Complete ([1]; NCI-H292 cells, complete media): 0.8309 | Difference [1, 4]: −0.33 | Cholesterol-free media + simvastatin (0.04 μM) [2, 5]: 1.047 | Complete Media [2, 6]: 1.102 | Difference [2, 7]: 0.05

CCC[C@@H]1C[C@@H](C(=O)N[C@@H]([C@H]2O[C@H](SC)[C@H](O)[C@@H](O)[C@H]2O)[C@H](C)Cl)N(C)C1 [Clindamycin (hydrochloride)]
Difference [1, 8]: −0.08 | Cholesterol-free [1, 9]: 1.009 | Complete [1, 10]: 0.9276 | Cholesterol-free media + simvastatin (0.04 μM) [2, 5]: 1.243 | Complete Media [2, 6]: 1.299 | Difference [2, 7]: 0.06

CCOC(=O)[C@H](CCc1ccccc1)N[C@H]1CCCN2CCC[C@@H](C(=O)O)N2C1=O [Cilazapril (monohydrate)]
Cholesterol-free [1, 11]: 0.8411 | Complete [1, 12]: 0.9896 | Difference [1, 13]: 0.15 | Cholesterol-free media + simvastatin (0.04 μM) [2, 14]: 1.266 | Complete Media [2, 15]: 1.104 | Difference [2, 16]: −0.16

CNCCC=C1c2ccccc2CCc2ccccc21 [Nortriptyline (hydrochloride)]
Cholesterol-free [1, 3]: 1.336 | Complete ([1]; NCI-H292 cells, complete media): 1.01 | Difference [1, 4]: −0.33 | Cholesterol-free media + simvastatin (0.04 μM) [2, 14]: 1.16 | Complete Media [2, 15]: 0.9078 | Difference [2, 16]: −0.25

C[C@H](CCC(=O)O)[C@H]1CC[C@H]2[C@@H]3[C@H](O)C[C@@H]4C[C@H](O)CC[C@]4(C)[C@H]3CC[C@]12C [Chenodeoxycholic Acid]
Cholesterol-free [1, 11]: 0.7972 | Complete [1, 12]: 1.211 | Difference [1, 13]: 0.41 | Cholesterol-free media + simvastatin (0.04 μM) [2, 17]: 0.895 | Complete Media [2, 18]: 0.9061 | Difference [2, 19]: 0.01

NC(=O)c1cc[n+](CC2=C(C(=O)O)N3C(=O)[C@@H](NC(=O)[C@@H](c4ccccc4)S(=O)(=O)[O-])[C@H]3SC2)cc1 [Cefsulodin (sodium)]
Cholesterol-free [1, 3]: 1.045 | Complete ([1]; NCI-H292 cells, complete media): 0.6569 | Difference [1, 4]: −0.39 | Cholesterol-free media + simvastatin (0.04 μM) [2, 20]: 1.191 | Complete Media [2, 10]: 1.113 | Difference [2, 16]: −0.08

Lumateperone (tosylate)
Difference [1, 21]: −0.84 | Cholesterol-free [1, 22]: 1.615 | Cholesterol-free media + simvastatin (0.04 μM) [2, 17]: 1.37 | Complete Media [2, 18]: 1.357 | Difference [2, 23]: −0.01

CCCCC[C@H](O)/C=C/[C@H]1[C@H](O)CC(=O)[C@@H]1C/C=C\CCCC(=O)O [Prostaglandin E2]
Difference [1, 24]: −0.61 | Cholesterol-free [1, 22]: 1.546 | Complete [1, 25]: 0.9346 | Cholesterol-free media + simvastatin (0.04 μM) [2, 5]: 0.8899 | Complete Media [2, 6]: 0.9562 | Difference [2, 7]: 0.07

CC(=O)O[C@H]1[C@H]2O[C@]23[C@@H]2CC[C@]4(O)C[C@@H](O)CC[C@]4(C)[C@H]2CC[C@]3(C)[C@H]1c1ccc(=O)oc1 [Cinobufotalin]
Difference [1, 21]: −0.04 | Cholesterol-free [1, 11]: 0.003242 | Complete [1, 12]: −0.03407 | Cholesterol-free media + simvastatin (0.04 μM) [2, 17]: 0.03115 | Complete Media [2, 18]: 0.01046 | Difference [2, 23]: −0.02

COc1cc([C@@H]2c3cc4c(cc3[C@H](O)[C@H]3COC(=O)[C@H]23)OCO4)cc(OC)c1OC [Podofilox]
Difference [1, 21]: −0.01 | Cholesterol-free [1, 11]: 0.05355 | Complete [1, 12]: 0.04847 | Cholesterol-free media + simvastatin (0.04 μM) [2, 17]: 0.1667 | Complete Media [2, 18]: 0.1215 | Difference [2, 23]: −0.05

CCN(CC)CCCC(C)Nc1ccnc2cc(Cl)ccc12 (stereo not shown) [Chloroquine]
Cholesterol-free [1]: 1.226 | Complete [1]: 0.9181 | Difference [1]: −0.31 | Cholesterol-free media + simvastatin (0.04 μM) [2]: 2.192 | Complete Media [2]: 0.9997 | Difference [2]: −1.19

CC(C)=CCOc1ccc(/C=C/C(=O)c2ccc(OCC=C(C)C)cc2OCC(=O)O)cc1 [Sofalcone]
Difference [1, 8]: −0.07 | Cholesterol-free [1, 9]: 0.9203 | Complete [1, 10]: 0.8453 | Cholesterol-free media + simvastatin (0.04 μM) [2, 17]: 0.8486 | Complete Media [2, 18]: 0.7952 | Difference [2, 19]: −0.05

COC(=O)C[C@](O)(CCC(C)(C)O)C(=O)O[C@@H]1C(OC)=C[C@]23CCCN2CCc2cc4c(cc2[C@H]13)OCO4 [Harringtonine]
Difference [1, 21]: −0.01 | Cholesterol-free [1, 11]: 0.0181 | Complete [1, 12]: 0.006818 | Cholesterol-free media + simvastatin (0.04 μM) [2, 17]: −0.01111 | Complete Media [2, 18]: −0.002434 | Difference [2, 23]: 0.01

CN1C(=O)CCS(=O)(=O)C1c1ccc(Cl)cc1 (stereo not shown) [Chlormezanone]
Cholesterol-free [1, 11]: 0.6871 | Complete [1, 12]: 0.9881 | Difference [1, 26]: 0.30 | Cholesterol-free media + simvastatin (0.04 μM) [2, 27]: 1.449 | Complete Media [2, 28]: 1.114 | Difference [2, 29]: −0.34

C[C@@H](O)[C@H]1C(=O)N2C(C(=O)O)=C(SCCN=CN)C[C@H]12 [Imipenem monohydrate]
Difference [1, 30]: −0.03 | Cholesterol-free [1, 11]: 1.1 | Complete [1, 12]: 1.066 | Cholesterol-free media + simvastatin (0.04 μM) [2, 17]: 0.9916 | Complete Media [2, 18]: 0.9548 | Difference [2, 19]: −0.04

Clc1cccc(Cl)c1N=C1NCCN1 [Clonidine]
Difference [1, 24]: −0.63 | Cholesterol-free [1, 22]: 1.46 | Complete [1, 25]: 0.8249 | Cholesterol-free media + simvastatin (0.04 μM) [2, 27]: 1.26 | Complete Media [2, 28]: 0.9157 | Difference [2, 16]: −0.34

O=C1CCc2ccc(OCCCCN3CCN(c4cccc(Cl)c4Cl)CC3)cc2N1 [Aripiprazole]
Difference [1, 8]: −0.16 | Cholesterol-free [1, 9]: 0.9968 | Complete [1, 10]: 0.833 | Cholesterol-free media + simvastatin (0.04 μM) [2, 14]: 1.264 | Complete Media [2, 15]: 1.028 | Difference [2, 16]: −0.24

O=C(O)CCCN1CCC(O[C@@H](c2ccc(Cl)cc2)c2ccccn2)CC1 [Bepotastine]
Cholesterol-free [1, 11]: 0.9809 | Complete [1, 12]: 1.256 | Difference [1, 13]: 0.28 | Cholesterol-free media + simvastatin (0.04 μM) [2, 14]: 0.9667 | Complete Media [2, 15]: 0.7639 | Difference [2, 16]: −0.20

COCC(=O)Nc1c(I)c(C(=O)NCC(O)CO)c(I)c(C(=O)N(C)CC(O)CO)c1I (stereo not shown) [Iopromide]
Cholesterol-free [1, 11]: 0.9462 | Complete [1, 12]: 1.578 | Difference [1, 13]: 0.63 | Cholesterol-free media + simvastatin (0.04 μM) [2, 17]: 0.8199 | Complete Media [2, 18]: 0.7955 | Difference [2, 19]: −0.02

Tafenoquine (Succinate)
Difference [1, 30]: −0.06 | Cholesterol-free [1, 11]: 1.252 | Complete [1, 12]: 1.196 | Cholesterol-free media + simvastatin (0.04 μM) [2, 20]: 1.136 | Complete Media [2, 10]: 1.045 | Difference [2, 16]: −0.09

Angiotensin III (TFA) (RVYIHPF; also: TFA salt; UniProt P01019 26-32, looked up)
Cholesterol-free [1, 3]: 1.338 | Complete ([1]; NCI-H292 cells, complete media): 0.9878 | Difference [1, 26]: −0.35 | Complete Media [2, 15]: 0.8125 | Difference [2, 29]: −0.20

CC12CCC(CC1=O)C2(C)C (stereo not drawn) [(+)-Camphor]
Cholesterol-free [1, 11]: 0.9458 | Complete [1, 12]: 1.19 | Difference [1, 13]: 0.24 | Cholesterol-free media + simvastatin (0.04 μM) [2, 5]: 0.9198 | Complete Media [2, 6]: 1.05 | Difference [2, 7]: 0.13
